In patent publication US10448639B2, “Fungicidal pyrazoles” (FMC CORPORATION, priority 2009, dated 2019):

What was measured:
[1] = tested on: Puccinia recondita f. sp. tritici; experiment: Test I: wheat leaf rust, preventive spray on wheat seedlings, visual disease rating; conditions: wheat leaf rust, preventive; 100 = 100% disease control, 0 = no control relative to controls
Botrytis cinerea = experiment: Test B: tomato Botrytis, preventive spray on tomato seedlings, visual disease rating; conditions: tomato Botrytis; 100 = 100% disease control, 0 = no control relative to controls
Septoria tritici = experiment: Test G: wheat leaf blotch, preventive spray on wheat seedlings, visual disease rating; conditions: wheat leaf blotch; 100 = 100% disease control, 0 = no control relative to controls
Alternaria solani = experiment: Test C: tomato early blight, preventive spray on tomato seedlings, visual disease rating; conditions: tomato early blight; 100 = 100% disease control, 0 = no control relative to controls
Source text: General protocol for preparing test suspensions for Tests A-J: the test compounds were first dissolved in acetone in an amount equal to 3% of the final volume and then suspended at the desired concentration (in ppm) in acetone and purified water (50/50 mix by volume) containing 250 ppm of the surfactant Trem® 014 (polyhydric alcohol esters). The resulting test suspensions were then used in Tests A-J. Spraying a 200 ppm test suspension to the point of run-off on the test plants was the equivalent of a rate of 500 g/ha. Unless otherwise indicated, the rating values indicate a 200 ppm test suspension was used. (An asterisk “*” next to the rating value indicates a 40 ppm test suspension was used.)
The test suspension was sprayed to the point of run-off on tomato seedlings. The following day the seedlings were inoculated with a spore suspension of Alternaria solani (the causal agent of tomato early blight) and incubated in a saturated atmosphere at 27° C. for 48 h, and then moved to a growth chamber at 20° C. for 5 days, after which time visual disease ratings were made.

[2] = tested on: Erysiphe graminis f sp. tritici; experiment: Test J: wheat powdery mildew, preventive spray on wheat seedlings, visual disease rating; conditions: wheat powdery mildew; 100 = 100% disease control, 0 = no control relative to controls
Septoria nodorum = experiment: Test F: Septoria glume blotch, preventive spray on wheat seedlings, visual disease rating; conditions: Septoria glume blotch; 100 = 100% disease control, 0 = no control relative to controls
[3] = tested on: Puccinia recondita f. sp. tritici; experiment: Test H: wheat leaf rust, curative spray on inoculated wheat seedlings, visual disease rating; conditions: wheat leaf rust, curative; 100 = 100% disease control, 0 = no control relative to controls

Structure (SMILES): COc1ccc(-c2c(C)nn(C)c2Nc2c(F)ccc(F)c2F)c(Cl)c1 [compound 174]
- Test I rating (% disease control) [1]: 97%
- Test B rating (% disease control) (Botrytis cinerea): 100%
- Test G rating (% disease control) (Septoria tritici): 96%
- Test C rating (% disease control) (Alternaria solani): 99%
- Test J rating (% disease control) [2]: 99%
- Test F rating (% disease control) (Septoria nodorum): 0%
- Test H rating (% disease control) [3]: 0%

Structure (SMILES): COc1ccc(-c2c(C)nn(C)c2Nc2cc(F)ccc2F)c(Cl)c1 [compound 176]
- Test I rating (% disease control) [1]: 68%
- Test B rating (% disease control) (Botrytis cinerea): 100%
- Test G rating (% disease control) (Septoria tritici): 96%
- Test C rating (% disease control) (Alternaria solani): 71%
- Test J rating (% disease control) [2]: 100%
- Test F rating (% disease control) (Septoria nodorum): 0%
- Test H rating (% disease control) [3]: 0%

Structure (SMILES): Cc1nn(C)c(Nc2ccc(F)cc2F)c1-c1c(F)cccc1Cl [compound 177]
- Test I rating (% disease control) [1]: 83%
- Test B rating (% disease control) (Botrytis cinerea): 100%
- Test G rating (% disease control) (Septoria tritici): 98%
- Test C rating (% disease control) (Alternaria solani): 100%
- Test J rating (% disease control) [2]: 100%
- Test F rating (% disease control) (Septoria nodorum): 73%
- Test H rating (% disease control) [3]: 0%

Structure (SMILES): Cc1nn(C)c(Nc2ccc(F)cc2F)c1-c1c(F)cccc1F [compound 178]
- Test I rating (% disease control) [1]: 83%
- Test B rating (% disease control) (Botrytis cinerea): 100%
- Test G rating (% disease control) (Septoria tritici): 98%
- Test C rating (% disease control) (Alternaria solani): 100%
- Test J rating (% disease control) [2]: 100%
- Test F rating (% disease control) (Septoria nodorum): 80%
- Test H rating (% disease control) [3]: 0%

Structure (SMILES): Cc1nn(C)c(Nc2ccc(Cl)cc2Cl)c1-c1c(F)cccc1F [compound 179]
- Test I rating (% disease control) [1]: 93%
- Test B rating (% disease control) (Botrytis cinerea): 100%
- Test G rating (% disease control) (Septoria tritici): 95%
- Test C rating (% disease control) (Alternaria solani): 99%
- Test J rating (% disease control) [2]: 100%
- Test F rating (% disease control) (Septoria nodorum): 73%
- Test H rating (% disease control) [3]: 0%

Structure (SMILES): COc1ccc(Nc2c(-c3c(F)cccc3F)c(C)nn2C)c(F)c1 [compound 180]
- Test I rating (% disease control) [1]: 68%
- Test B rating (% disease control) (Botrytis cinerea): 100%
- Test G rating (% disease control) (Septoria tritici): 98%
- Test C rating (% disease control) (Alternaria solani): 99%
- Test J rating (% disease control) [2]: 100%
- Test F rating (% disease control) (Septoria nodorum): 0%
- Test H rating (% disease control) [3]: 0%

Structure (SMILES): Cc1nn(C)c(Nc2ccc(F)cc2F)c1-c1ccccc1F [compound 181]
- Test I rating (% disease control) [1]: 60%
- Test B rating (% disease control) (Botrytis cinerea): 94%
- Test G rating (% disease control) (Septoria tritici): 100%
- Test C rating (% disease control) (Alternaria solani): 44%
- Test J rating (% disease control) [2]: 98%
- Test F rating (% disease control) (Septoria nodorum): 0%
- Test H rating (% disease control) [3]: 0%

Structure (SMILES): Cc1nn(C)c(Nc2c(F)cc(F)cc2F)c1-c1ccccc1F [compound 182]
- Test I rating (% disease control) [1]: 95%
- Test B rating (% disease control) (Botrytis cinerea): 97%
- Test G rating (% disease control) (Septoria tritici): 100%
- Test C rating (% disease control) (Alternaria solani): 99%
- Test J rating (% disease control) [2]: 99%
- Test F rating (% disease control) (Septoria nodorum): 87%
- Test H rating (% disease control) [3]: 0%

Structure (SMILES): COc1cc(F)c(Nc2c(-c3ccccc3F)c(C)nn2C)c(F)c1 [compound 183]
- Test I rating (% disease control) [1]: 94%
- Test B rating (% disease control) (Botrytis cinerea): 97%
- Test G rating (% disease control) (Septoria tritici): 99%
- Test C rating (% disease control) (Alternaria solani): 100%
- Test J rating (% disease control) [2]: 99%
- Test F rating (% disease control) (Septoria nodorum): 67%
- Test H rating (% disease control) [3]: 27%

Structure (SMILES): Cc1nn(C)c(Nc2ccc(F)cc2)c1-c1ccccc1F [compound 184]
- Test I rating (% disease control) [1]: 82%
- Test B rating (% disease control) (Botrytis cinerea): 97%
- Test G rating (% disease control) (Septoria tritici): 99%
- Test C rating (% disease control) (Alternaria solani): 0%
- Test J rating (% disease control) [2]: 98%
- Test F rating (% disease control) (Septoria nodorum): 0%
- Test H rating (% disease control) [3]: 0%

Structure (SMILES): COc1cc(F)c(-c2c(C)nn(C)c2Oc2ccc(Cl)c(C)c2)c(F)c1 [compound 185]
- Test I rating (% disease control) [1]: 74%
- Test B rating (% disease control) (Botrytis cinerea): 0%
- Test G rating (% disease control) (Septoria tritici): 100%
- Test C rating (% disease control) (Alternaria solani): 0%
- Test J rating (% disease control) [2]: 98%
- Test F rating (% disease control) (Septoria nodorum): 0%
- Test H rating (% disease control) [3]: 0%

Structure (SMILES): COc1cc(F)c(-c2c(C)nn(C)c2Oc2ccc(Br)c(C)c2)c(F)c1 [compound 186]
- Test I rating (% disease control) [1]: 54%
- Test B rating (% disease control) (Botrytis cinerea): 0%
- Test G rating (% disease control) (Septoria tritici): 99%
- Test C rating (% disease control) (Alternaria solani): 0%
- Test J rating (% disease control) [2]: 93%
- Test F rating (% disease control) (Septoria nodorum): 0%
- Test H rating (% disease control) [3]: 0%

Structure (SMILES): Cc1ccc(Oc2c(-c3c(F)cc(F)cc3F)c(C)nn2C)cc1F [compound 187]
- Test I rating (% disease control) [1]: 9%
- Test B rating (% disease control) (Botrytis cinerea): 33%
- Test G rating (% disease control) (Septoria tritici): 20%
- Test C rating (% disease control) (Alternaria solani): 0%
- Test J rating (% disease control) [2]: 13%
- Test F rating (% disease control) (Septoria nodorum): 0%
- Test H rating (% disease control) [3]: 0%

Structure (SMILES): COc1cc(F)c(-c2c(C)nn(C)c2Oc2ccc(C)c(F)c2)c(F)c1 [compound 188]
- Test I rating (% disease control) [1]: 97%
- Test B rating (% disease control) (Botrytis cinerea): 87%
- Test G rating (% disease control) (Septoria tritici): 100%
- Test C rating (% disease control) (Alternaria solani): 0%
- Test J rating (% disease control) [2]: 97%
- Test F rating (% disease control) (Septoria nodorum): 0%
- Test H rating (% disease control) [3]: 0%

Structure (SMILES): Cc1nn(C)c(Oc2ncc(F)cc2F)c1-c1ccc(F)cc1Cl [compound 189]
- Test I rating (% disease control) [1]: 99%
- Test B rating (% disease control) (Botrytis cinerea): 99%
- Test G rating (% disease control) (Septoria tritici): 100%
- Test C rating (% disease control) (Alternaria solani): 100%
- Test J rating (% disease control) [2]: 98%
- Test F rating (% disease control) (Septoria nodorum): 80%
- Test H rating (% disease control) [3]: 99%

Structure (SMILES): COc1cc(F)c(Nc2c(-c3c(F)cccc3Cl)c(C)nn2C)c(F)c1 [compound 190]
- Test I rating (% disease control) [1]: 100%
- Test B rating (% disease control) (Botrytis cinerea): 99%
- Test G rating (% disease control) (Septoria tritici): 100%
- Test C rating (% disease control) (Alternaria solani): 99%
- Test J rating (% disease control) [2]: 99%
- Test F rating (% disease control) (Septoria nodorum): 80%
- Test H rating (% disease control) [3]: 94%

Structure (SMILES): Cc1nn(C)c(Nc2c(F)cc(F)cc2F)c1-c1c(F)cccc1Cl [compound 191]
- Test I rating (% disease control) [1]: 97%
- Test B rating (% disease control) (Botrytis cinerea): 98%
- Test G rating (% disease control) (Septoria tritici): 100%
- Test C rating (% disease control) (Alternaria solani): 100%
- Test J rating (% disease control) [2]: 99%
- Test F rating (% disease control) (Septoria nodorum): 0%
- Test H rating (% disease control) [3]: 0%

Structure (SMILES): Cc1nn(C)c(Nc2c(F)cc(C#N)cc2F)c1-c1c(F)cccc1Cl [compound 192]
- Test I rating (% disease control) [1]: 99%
- Test B rating (% disease control) (Botrytis cinerea): 97%
- Test G rating (% disease control) (Septoria tritici): 100%
- Test C rating (% disease control) (Alternaria solani): 100%
- Test J rating (% disease control) [2]: 99%
- Test F rating (% disease control) (Septoria nodorum): 73%
- Test H rating (% disease control) [3]: 0%

Structure (SMILES): Cc1nn(C)c(Nc2ccc(F)cc2)c1-c1ccc(F)cc1F [compound 194]
- Test I rating (% disease control) [1]: 91%
- Test B rating (% disease control) (Botrytis cinerea): 97%
- Test G rating (% disease control) (Septoria tritici): 99%
- Test C rating (% disease control) (Alternaria solani): 86%
- Test J rating (% disease control) [2]: 99%
- Test F rating (% disease control) (Septoria nodorum): 0%
- Test H rating (% disease control) [3]: 0%

Structure (SMILES): Cc1nn(C)c(Nc2ccc(Cl)cc2)c1-c1ccc(F)cc1F [compound 195]
- Test I rating (% disease control) [1]: 98%
- Test B rating (% disease control) (Botrytis cinerea): 100%
- Test G rating (% disease control) (Septoria tritici): 100%
- Test C rating (% disease control) (Alternaria solani): 97%
- Test J rating (% disease control) [2]: 97%
- Test F rating (% disease control) (Septoria nodorum): 60%
- Test H rating (% disease control) [3]: 0%
